Consider eight compounds from patent publication US9549921B2, “Heterocyclic compounds and methods of use thereof for the treatment of hepatitis C” (priority 2014, dated 2017).

Like-named read-outs stand apart in the source and are kept apart here.

In one assay the test system is HCV replicon genotype 1a. Briefly: HCV replicon assay, genotype 1a (cell ELISA for NS3/4A). In kind it is cell-based, hepatitis C virus. The method, then: (§1) The HCV NS5B inhibitory activity of the present compounds may be tested using assays known in the art. The HCV NS5B polymerase inhibitors described herein have activities in a genotype 1b replicon assay as described in the Examples. The assay is performed by incubating a replicon harboring cell-line in the presence of inhibitor for a set period of time and measuring the effect of the inhibitor on HCV replicon replication either directly by quantifying replicon RNA level, or indirectly by measuring enzymatic activity of a co-encoded reporter enzyme such as luciferase or β-lactamase. By performing a series of such measurements at different inhibitor concentrations, the effective inhibitory concentration of the inhibitor (EC50 or EC90) is determined. See Jan M. Vrolijk et al., A replicons-based bioassay for the measurement of interferons in patients with chronic hepatitis C, 110 J. VIROLOGICAL METHODS 201 (2003). Such assays may also be run in an automated format for high through-put screening. See Paul Zuck et al., A cell-based β-lactamase reporter gene assay for the identification of inhibitors of hepatitis C virus replication, 334 ANALYTICAL BIOCHEMISTRY 344 (2004).
(§2) Measurement of inhibition by compounds was performed using the HCV replicon system. Several different replicons encoding different HCV genotypes or mutations were used. In addition, potency measurements were made using different formats of the replicon assay, including different ways of measurements and different plating formats. See Jan M. Vrolijk et al., A replicons-based bioassay for the measurement of interferons in patients with chronic hepatitis C, 110 J. VIROLOGICAL METHODS 201 (2003); Steven S. Carroll et al., Inhibition of Hepatitis C Virus RNA Replication by 2′-Modified Nucleoside Analogs, 278(14) J. BIOLOGICAL CHEMISTRY 11979 (2003). However, the underlying principles are common to all of these determinations, and are outlined below.
(§3) Stable neomycin phosphotransferase encoding replicons-harboring cell lines were used, so all cell lines were maintained under G418 selection prior to the assay. Potency was deteremined using a cell ELISA assay with an antibody to the replicons encoded NS3/4a protease. See Caterina Trozzi et al., In Vitro Selection and Characterization of Hepatitis C Virus Serine Protease Variants Resistant to an Active-Site Peptide Inhibitor, 77(6) J. Virol. 3669 (2003). To initiate an assay, replicon cells were plated in the presence of a dilution series of test compound in the absence of G418. Typically, the assays were performed in a 96-well plate formate for manual operation, or a 384-well plate format for automated assay. Replicon cells and compound were incubated for 96 hours. At the end of the assay, cells were washed free of media and compound, and the cells were then lysed. RNA was quantified indirectly through detection of replicon-encoded NS3/4A protein levels, through an ELISA-based assay with an antibody specific for NS3/4A. IC50 determinations were calculated as a percentage of a DMSO control by fitting the data to a four-parameter fit function and the data obtained is provided in the table below.
(§4) Data for selected compounds of the present invention was obtained for genotypes 1a and 1b using this method and is provided in the table below: […]

A further assay relates to HCV replicon genotype 1b. Briefly: HCV replicon assay, genotype 1b (cell ELISA for NS3/4A). It is filed as cell-based, hepatitis C virus. The method, then: as §1, §2, §3, §4
Setting [1] is: Hepatitis C virus, 96 h, read-out: 1a IC50 (nM), HCV genotype 1a replicon cells, 96 hours incubation, NS3/4A ELISA readout, % of DMSO control.
Where [2] appears, read: Hepatitis C virus, 96 h, read-out: 1b IC50 (nM), HCV genotype 1b replicon cells, 96 hours incubation, NS3/4A ELISA readout, % of DMSO control.
[3] abbreviates: read-out: 1a IC50, HCV genotype 1a replicon cells, 96 hours incubation, NS3/4A ELISA readout, % of DMSO control.
Setting [4] is: read-out: 1b IC50, HCV genotype 1b replicon cells, 96 hours incubation, NS3/4A ELISA readout, % of DMSO control.

Consider `CNC(=O)c1c(-c2ccc(F)cc2)oc2cc(N(C)S(C)(=O)=O)c([C@H]3CN(C(=O)c4cc5cccc(F)c5[nH]4)CCO3)cc12` (single isomer, unassigned) [Example 6, 5-(4-(7-fluoro-1H-indole-2-carbonyl)morpholin-2-yl)-2-(4-fluorophenyl)-N-methyl-6-(N-methylmethylsulfonamido)benzofuran-3-carboxamide], for which the IC50 in the assay on HCV replicon genotype 1a (setting [1]) came out at 11.1 nM; with HCV replicon genotype 1b (setting [2]), 17.4 nM.

Consider `CNC(=O)c1c(-c2ccc(F)cc2)oc2cc(N(C)S(C)(=O)=O)c([C@H]3CN(C(=O)c4cc5cccc(F)c5[nH]4)CCO3)cc12` (single isomer, unassigned) [Example 7, 5-(4-(7-fluoro-1H-indole-2-carbonyl)morpholin-2-yl)-2-(4-fluorophenyl)-N-methyl-6-(N-methylmethylsulfonamido)benzofuran-3-carboxamide], for which the IC50 was 5.79 nM in the assay on HCV replicon genotype 1a (setting [3]) and 11.6 nM in the assay with HCV replicon genotype 1b (setting [4]).

In the case of `CNC(=O)c1c(-c2ccc(F)cc2)oc2cc(N(C)S(C)(=O)=O)c([C@H]3CN(C(=O)c4cc5c(F)cccc5n4C)CCO3)cc12` (single isomer, unassigned) [Example 8, 5-(4-(4-fluoro-1-methyl-1H-indole-2-carbonyl)morpholin-2-yl)-2-(4-fluorophenyl)-N-methyl-6-(N-methylmethylsulfonamido)benzofuran-3-carboxamide], the results for the IC50 in the assay on HCV replicon genotype 1a (setting [1]) and in the assay on HCV replicon genotype 1b (setting [2]) were 28.2 nM and 36.9 nM, respectively.

Consider `CNC(=O)c1c(-c2ccc(F)cc2)oc2cc(N(C)S(C)(=O)=O)c([C@H]3CN(C(=O)c4cc5c(F)cccc5n4C)CCO3)cc12` (single isomer, unassigned) [Example 9, 5-(4-(4-fluoro-1-methyl-1H-indole-2-carbonyl)morpholin-2-yl)-2-(4-fluorophenyl)-N-methyl-6-(N-methylmethylsulfonamido)benzofuran-3-carboxamide], for which the figures for the IC50 in the assay with HCV replicon genotype 1a (setting [3]) and with HCV replicon genotype 1b (setting [4]) were 54 nM and 67.8 nM, respectively.

`CNC(=O)c1c(-c2ccc(F)cc2)oc2cc(N(C)S(C)(=O)=O)c([C@H]3CN(c4nc5ccccc5o4)CCO3)cc12` (single isomer, unassigned) [Example 10, 5-(4-(benzo[d]oxazol-2-yl)morpholin-2-yl)-2-(4-fluorophenyl)-N-methyl-6-(N-methylmethylsulfonamido)benzofuran-3-carboxamide]: the IC50 in the assay on HCV replicon genotype 1a (setting [1]) is 16 nM; in the assay on HCV replicon genotype 1b (setting [2]) it was 26.6 nM.

With `CNC(=O)c1c(-c2ccc(F)cc2)oc2cc(N(C)S(C)(=O)=O)c([C@H]3CN(c4nc5ccccc5o4)CCO3)cc12` (single isomer, unassigned) [Example 11, 5-(4-(benzo[d]oxazol-2-yl)morpholin-2-yl)-2-(4-fluorophenyl)-N-methyl-6-(N-methylmethylsulfonamido)benzofuran-3-carboxamide], the IC50 in the assay on HCV replicon genotype 1a (setting [3]) worked out at 21.4 nM; in the assay on HCV replicon genotype 1b (setting [4]), 17.2 nM.

Consider `CNC(=O)c1c(-c2ccc(F)cc2)oc2cc(N(C)S(C)(=O)=O)c([C@@H]3CCN(C(=O)c4cc5c(F)cccc5n4C)C3)cc12` (single isomer, unassigned) [Example 14, 5-(1-(4-fluoro-1-methyl-1H-indole-2-carbonyl)pyrrolidin-3-yl)-2-(4-fluorophenyl)-N-methyl-6-(N-methylmethylsulfonamido)benzofuran-3-carboxamide], for which the IC50 was 25.9 nM with HCV replicon genotype 1a (setting [3]) and 2.77 nM in the assay on HCV replicon genotype 1b (setting [4]).

For the compound `CNC(=O)c1c(-c2ccc(F)cc2)oc2cc(N(C)S(C)(=O)=O)c([C@@H]3CCN(C(=O)c4cc5c(F)cccc5n4C)C3)cc12` (single isomer, unassigned) [Example 15, 5-(1-(4-fluoro-1-methyl-1H-indole-2-carbonyl)pyrrolidin-3-yl)-2-(4-fluorophenyl)-N-methyl-6-(N-methylmethylsulfonamido)benzofuran-3-carboxamide], the IC50 in the assay with HCV replicon genotype 1a (setting [3]) worked out at 125 nM; in the assay on HCV replicon genotype 1b (setting [4]) it was 11.2 nM.
